For data set [1], the system named is FaDu (head and neck cancer) cell line. Briefly: MTT cytotoxicity assay, FaDu. The data set is classed as cell-based. To be noted: Homo sapiens, 72 h, read-out: Cytotoxicity FaDu (nM, 72 hour). As for the experimental part:
(§1) Tumor cell lines were maintained in RPMI1640 medium supplemented with 10% heat-inactivated fetal bovine serum, 2 mM L-glutamine and 1 mM sodium pyruvate. 1800 cells per well were seeded in a volume of 180 μl in a 96-well flat bottom polystyrene plate. The cells were allowed to adhere overnight at 37° C. in a CO2 incubator. Ligands were initially formulated in DMSO, and stocks stored at −80° C. They were then further formulated at lox concentration in RPMI1640 medium. 20 ul of diluted samples were added into each treatment well. On each plate, blank wells with no cells, and untreated wells containing cells, were included. Plates were then cultured at 37° C. in a CO2 incubator for 72 hrs. Cytotoxicity was evaluated using a tetrazolium salt-based assay, the MTT assay. After 72 hours, the supernatant was removed from each well and 200 μl of a sterile filtered 500 μg/ml MTT solution in water added to each well. The plates were then incubated at 37° C. in a CO2 incubator for 4 hrs. The supernatant was then removed and the formazan crystals formed solubilized by adding 150 μl of DMSO to each well. The plate was then read on a plate reader at 540 nm, and percentage cell survival calculated as follows: ((mean absorbance treated wells at concentration x−mean absorbance blank wells)[…](mean absorbance untreated wells at concentration x−mean absorbance blank wells))×100. Data were plotted as concentration in nM vs. % cell survival in Microsoft Excel, and IC50 values (concentration where cell survival is reduced by a half) were determined from the graph.
On the technique in general: Tetrazolium dyes change colour on reduction, which living cells bring about.

Another data set concerns PC3 (prostate) cell line. As to the kind of experiment: MTT cytotoxicity assay, PC3. The data set is classed as cell-based. To be noted: 72 h, read-out: Cytotoxicity PC3 (nM, 72 hour). The protocol:
as §1

A further data set relates to SW48 cell line (gastric). As to the kind of experiment: MTT cytotoxicity assay, SW48. The class given is cell-based. The settings on record: MTT assay, 72 hour incubation. The protocol: as §1
The test system of data set [2] is LIM1215 cell line (gastric). Briefly: MTT cytotoxicity assay, LIM1215. The class given is cell-based. To be noted: MTT assay, 72 hour incubation, read-out: Cytotoxicity LIM1215 (72 hours). As for the experimental part:
as §1

The test system of data set [3] is SW620 cell line (gastric). Briefly: MTT cytotoxicity assay, SW620. The class given is cell-based. The settings on record: MTT assay, 72 hour incubation, read-out: Cytotoxicity SW620 (72 hours). As for the experimental part:
as §1

Data set [4] has as its system three fluorescently labelled DNA sequences shown in FIG. 17. As to the kind of experiment: FRET DNA melting, the three DNA sequences shown in FIG. 17 together. The class given is binding. The settings on record: for effect on melting temperature / DNA stabilisation: different concentrations, all three sequences, vs control DNA. The text has this:
Further FRET DNA melting studies were undertaken on a number of molecules using three fluorescently labelled sequences. The sequences (FIG. 17) were designed to provide additional evidence that the series can form inter- and intrastrand cross-links. Inosines were inserted in place of traditional DNA bases in some cases to limit the number of binding sites available for the compounds to interact with. The short duplexes used in this FRET study are relatively unstable in the duplex form with a melting temperature below 30° C. so that, in the absence of ligand, a large part of the melting occurs below the starting temperature of the experiment. […] Increasing concentrations of 13 cause a greater amount of the melting transition to appear at the higher temperature (i.e. a greater number of the DNA molecules are cross-linked). A greater effect for 5′-AIIAGAITTTI′-3′ can be observed at lower concentrations of 13.
Oligonucleotides were obtained from ATDbio (Southampton, UK) in lyophilised form. They were labelled with a fluorophore molecule (F=fluorescein) at the 5′-end and a quencher molecule (Q=dabcyl) at the 3′-end of the complementary strand. Each oligonucleotide was dissolved in distilled H2O to form stock solutions of 100 PM. Working solutions of 5 μM were prepared by diluting the stock solution with distilled H2O.
The following buffers were used: 250 mM phosphate buffer pH 7.4 (consisting of sodium dihydrogen phosphate and sodium phosphate diluted in distilled H2O) and 5 M sodium chloride buffer. A11 buffers and distilled H2O were filtered through a […] filter prior to use.
For the FRET experiments a stock solutions were prepared by dissolving compound (such as compound 13) in DMSO to give a concentration of 10 mM. From this stock solution, working solutions of the desired concentration were prepared by diluting the stock solution with distilled H2O.
The reaction mixture was comprised of 4 μL of 250 mM phosphate buffer (final concentration of 50 mM), 4 μL flourophor and 4 μL quencher molecule of the appropriate oligonucleotide for a final concentration of 0.2 PM, 4 μL 5 M sodium chloride (final concentration of 1 M NaCl), and 4 μL of distilled H2O. This mixture was heated in an Eppendorf tube at 90° C. for 1 min and slowly cooled down to room temperature. This process was carried out to anneal the single strands to double-stranded DNA. Following this, 4 μL of the ligand was added in the desired concentration and the mixture incubated overnight either at room temperature or 4° C. A control sample of DNA only was prepared by mixing 4 μL 250 mM phosphate buffer (final concentration of 50 mM) with 4 μL fluorophore-labelled and 4 μL quencher-labelled oligonucleotides (of the appropriate sequence) to give a final concentration of 0.2 PM, 4 μL 5 M sodium chloride (final concentration of 1 M NaCl) and 4 μL distilled H2O. This mixture was analysed without prior annealing.
Fluorescence melting profiles were measured using a Roche LightCycler using a total reaction volume of 20 μL. Initially, the samples were denatured by heating to 95° C. at a rate of 1° C. min^−1. The samples were then maintained at 95° C. for 5 min before annealing by cooling to 25° C. at 1° C. min^−1. The samples were then held at 25° C. for a further 5 min and finally melted by heating to 95° C. at 1° C. min^−1. Annealing steps and melting steps were all recorded and changes in fluorescence were measured at 520 nm.
Tm values were obtained from the first derivates of the melting profiles using the Roche LightCycler software.

[5] abbreviates: Homo sapiens, SW48, read-out: Cytotoxicity SW48 (72 hrs).

Molecules are shown by their SMILES. pIC50: −log10 of the molar value. Entries after “also recorded” stand apart in the source; their conditions may differ. Where two headings read alike, the source gives them in different places. Some results are limits rather than exact numbers.

Consider `COc1cc2c(cc1OCCCC(=O)N1C[C@@H](CCl)c3c1cc(OC(=O)N1CCN(C)CC1)c1ccccc31)N=C[C@@H]1CCCCN1C2=O` [Compound 55, (S)-1-(Chloromethyl)-3-(4-(((S)-2-methoxy-12-oxo-6a,7,8,9,10, 12-hexahydrobenzo[e]pyrido[1,2-a][1,4]diazepin-3-yl)oxy)butanoyl)-2,3-dihydro-1H-benzo[e]indol-5-yl 4-methylpiperazine-1-carboxylate], for which the IC50 stood at 1.5 nM in data set [1] and 0.02 nM in the data set on PC3 (prostate) cell line.

As to `COc1cc2c(cc1OCc1cccc(CC(=O)N3C[C@@H](CCl)c4c3cc(O)c3ccccc43)c1)NC(=O)[C@@H]1CCCCN1C2=O` [Compound 139, (S)-3-((3-(2-((S)-1-(Chloromethyl)-5-hydroxy-1,2-dihydro-3H-benzo[e]indol-3-yl)-2-oxoethyl)benzyl)oxy)-2-methoxy-7,8,9,10-tetrahydrobenzo[e]pyrido[1,2-a][1,4]diazepine-6,12(5H,6aH)-dione], the pIC50 in the data set on SW48 cell line (gastric) (setting [5]) is 9.02; in data set [2] (LIM1215), 7.92; in data set [3] (Homo sapiens, SW-620), 7.87.

Take `COc1cc2c(cc1OCCCC(=O)N1C[C@@H](CCl)c3c1cc(OC(=O)N1CCN(C)CC1)c1ccccc31)N=C[C@@H]1Cc3ccccc3CN1C2=O` [Compound 61, (S)-1-(Chloromethyl)-3-(4-(((S)-2-methoxy-14-oxo-6a,7,12,14-tetrahydrobenzo[5,6][1,4]diazepino[1,2-b]isoquinolin-3-yl)oxy)butanoyl)-2,3-dihydro-1H-benzo[e]indol-5-yl 4-methylpiperazine-1-carboxylate]: the IC50 (in data set [1]; in the data set on PC3 (prostate) cell line) was greater than 10 nM throughout.

Consider `CC(C)(C)OC(=O)N1C[C@@H](CCl)c2c1cc(O)c1ccccc21` [Compound 10, tert-Butyl (S)-1-(chloromethyl)-5-hydroxy-1,2-dihydro-3H-benzo[e]indole-3-carboxylate], for which the pIC50 with SW48 cell line (gastric) (setting [5]) is 5.54; in data set [2] (LIM1215) it was 5.90; in data set [3] (Homo sapiens, SW-620), 5.70.

Regarding `COc1cc2c(cc1OCc1cccc(CC(=O)N3C[C@@H](C)c4c3cc(O)c3ccccc43)c1)N=C[C@@H]1CCCCN1C2=O` [Compound 145, (S)-3-((3-(2-((S)-5-Hydroxy-1-methyl-1,2-dihydro-3H-benzo[e]indol-3-yl)-2-oxoethyl)benzyl)oxy)-2-methoxy-7,8,9,10-tetrahydrobenzo[e]pyrido[1,2-a][1,4]diazepin-12(6aH)-one], the pIC50 is 7.49 in the data set on SW48 cell line (gastric) (setting [5]); 6.86 in data set [2] (LIM1215); 6.46 in data set [3] (Homo sapiens, SW-620).

With `CC(C)(C)OC(=O)N1CC2CC23C1=CC(=O)c1ccccc13` [Compound 83, tert-Butyl (8bR,9aS)-4-oxo-9,9a-dihydro-1H-benzo[e]cyclopropa[c]indole-2(4H)-carboxylate], the pIC50 was 5.36 with SW48 cell line (gastric) (read-out: Cytotoxicity SW48 (72 hrs)), 5.54 in data set [2] and 5.45 in data set [3]. Moreover, in data set [4], the “effect on melting temperature / DNA stabilisation” value is on record as “do not increase”. The “degree of DNA stabilisation” value in data set [4] (middle sequence and bottom sequence in FIG. 17 (both AT-rich)) is listed as “very small degree of stabilisation”.

Turning to `COc1cc2c(cc1OCCCC(=O)N1C[C@@H](C)c3c1cc(O)c1ccccc31)N=C[C@@H]1CCCCN1C2=O` [Compound 152, (S)-3-(4-((S)—S-Hydroxy-1-methyl-1,2-dihydro-3H-benzo[e]indol-3-yl)-4-oxobutoxy)-2-methoxy-7,8,9,10-tetrahydrobenzo[e]pyrido[1,2-a][1,4]diazepin-12(6aH)-one], the “effect on melting temperature / DNA stabilisation” value in data set [4] was “limited increase”. Besides, in data set [4] (three sequences of FIG. 17), the “ΔTm compared to the active G-A cross-linker 42” value is “large decrease in the ΔTm value”.

Consider `COc1cc2c(cc1OCCCC(=O)N1C[C@@H](CCl)c3c1cc(OC(=O)N1CCN(C)CC1)c1ccccc31)NC(=O)[C@@H]1CCCCN1C2=O` [Compound 150, (S)-1-(Chloromethyl)-3-(4-(((S)-2-methoxy-6,12-dioxo-5,6,6a,7,8,9,10,12-octahydrobenzo[e]pyrido[1,2-a][1,4]diazepin-3-yl)oxy)butanoyl)-2,3-dihydro-1H-benzo[e]indol-5-yl 4-methylpiperazine-1-carboxylate], for which, in data set [4], the “effect on melting temperature / DNA stabilisation” value was “negligible DNA stabilisation; also recorded: do not increase”.

With `COc1cc2c(cc1OCc1c(C(=O)N3C[C@@H](CCl)c4c3cc(O)c3ccccc43)sc3ccccc13)N=C[C@@H]1CCCCN1C2=O` [Compound 91, (S)-3-((2-((S)-1-(Chloromethyl)-5-hydroxy-2,3-dihydro-1H-benzo[e]indole-3-carbonyl)benzo[b]thiophen-3-yl)methoxy)-2-methoxy-7,8,9,10-tetrahydrobenzo[e]pyrido[1,2-a][1,4]diazepin-12(6aH)-one], the pIC50 was 5.64 in the data set with SW48 cell line (gastric) (setting [5]); 5.66 in data set [2] (LIM1215); 5.58 in data set [3] (Homo sapiens, SW-620).

Take `COc1cc2c(cc1OCCCC(=O)N1C[C@@H](CCl)c3c1cc(O)c1ccccc31)NC(=O)[C@@H]1CCCCN1C2=O` [Compound 149, (S)-3-(4-((S)-1-(Chloromethyl)-5-hydroxy-1,2-dihydro-3H-benzo[e]indol-3-yl)-4-oxobutoxy)-2-methoxy-7,8,9,10-tetrahydrobenzo[e]-pyrido[1,2-a][1,4]diazepine-6,12(5H,6aH)-dione]: the “effect on melting temperature / DNA stabilisation” value in data set [4] is reported as “limited increase”.

In the case of `COc1cc2c(cc1OCc1cccc(CC(=O)N3C[C@@H](CCl)c4c3cc(O)c3ccccc43)c1)N=C[C@@H]1Cc3ccccc3CN1C2=O` [Compound 108, (S)-3-((3-(2-((S)-1-(Chloromethyl)-5-hydroxy-1,2-dihydro-3H-benzo[e]indol-3-yl)-2-oxoethyl)benzyl)oxy)-2-methoxy-7,12-dihydrobenzo[5,6][1,4]diazepino[1,2-b]isoquinolin-14(6aH)-one], the pIC50 with SW48 cell line (gastric) (Homo sapiens, SW48, read-out: IC50 value in SW48) is 11.40; in data set [2] (LIM1215) it was 9.11; in data set [3] (Homo sapiens, SW-620), 10.35.

For the origin of these results see US20240002379A1, “ASYMMETRIC CONJUGATE COMPOUNDS” (Pheon Therapeutics Ltd., priority 2016, published 2024).
